Data: patent publication US20160038468A1 (priority 2013, published 2016)
≈ marks a conversion by molar mass, not a printed value. Like-named read-outs stand apart in the source and are kept apart here.

Columns and labels:
Type in all cases: cell-based
Atopobium vaginae = test: Agar dilution MIC (CLSI), Atopobium vaginae vaginal isolates; settings: for Number of strains with indicated MIC: 62 samples
Mobiluncus all species = test: Agar dilution MIC (CLSI), Mobiluncus all species
M. curtisii = test: Agar dilution MIC (CLSI), M. curtisii vaginal isolates; settings: 14 samples
Prevotella amnii = test: Agar dilution MIC (CLSI), Prevotella amnii vaginal isolates; settings: for MIC: read-out: Minimal Inhibitory Concentration (MIC)
Prevotella timonensis = test: Agar dilution MIC (CLSI), Prevotella timonensis vaginal isolates; settings: Hoylesella timonensis, read-out: Minimal Inhibitory Concentration (MIC)
[1] = Fannyhessea vaginae, # tested 62
[2] = number (%) of isolates, # tested 40

Question: Which results are given for `Cc1ncc([N+](=O)[O-])n1CCO` [Metronidazole]?
Answer: activity against Atopobium vaginae (Atopobium vaginae): limited activity; MIC50 (Atopobium vaginae; [1]): 128 µg/mL (≈ 748 µM); MIC90 (Atopobium vaginae; [1]): > 128 µg/mL; Number of strains with indicated MIC (Atopobium vaginae; MIC 8 μg/ml): 2; Number of strains with indicated MIC (Atopobium vaginae; MIC 16 μg/ml): 5; Number of strains with indicated MIC (Atopobium vaginae; MIC 32 μg/ml): 10; Number of strains with indicated MIC (Atopobium vaginae; MIC 64 μg/ml): 8; Number of strains with indicated MIC (Atopobium vaginae; MIC >[…]): 24; Number of strains with indicated MIC (Atopobium vaginae; MIC […] μg/ml): 1; Number of strains with indicated MIC (Atopobium vaginae; MIC […]): 12; activity on Mobiluncus species (Mobiluncus all species): substantially less active; MIC50 (Mobiluncus all species; # tested 40): 8 µg/mL (≈ 46.7 µM); MIC90 (Mobiluncus all species; # tested 40): > 128 µg/mL; Intermediate (Mobiluncus all species; [2]): 1 (3) μg/ml; Susceptible (Mobiluncus all species; [2]): 22 (55) μg/ml; Resistant (Mobiluncus all species; number (%) of isolates, # tested 40, resistance: rifaximin >32, metronidazole >32, clindamycin >8 μg/ml): 17 (42) μg/ml; Number of strains with indicated MIC (M. curtisii; MIC 64 μg/ml): 3; Number of strains with indicated MIC (M. curtisii; MIC >[…]): 11; MIC Range (Prevotella amnii; # tested 33): 0.25 to 2 µg/mL; Number of strains with indicated MIC (Prevotella amnii; MIC […], 33 samples): 1; MIC (Prevotella amnii; Prevotella amnii, isolate 601203 4): 1 µg/mL (≈ 5.84 µM); MIC (Prevotella amnii; Prevotella amnii, isolate 601256 11): 1 µg/mL (≈ 5.84 µM); MIC (Prevotella amnii; Prevotella amnii, isolate 601258 25): 0.5 µg/mL (≈ 2.92 µM); MIC (Prevotella amnii; Prevotella amnii, isolate 601261 E): 1 µg/mL (≈ 5.84 µM); MIC (Prevotella amnii; Prevotella amnii, isolate 601266 20): 0.5 µg/mL (≈ 2.92 µM); MIC (Prevotella amnii; Prevotella amnii, isolate 601278 10): 1 µg/mL (≈ 5.84 µM); MIC (Prevotella amnii; Prevotella amnii, isolate 601287 HH): 0.5 µg/mL (≈ 2.92 µM); MIC (Prevotella amnii; Prevotella amnii, isolate 601291 41): 1 µg/mL (≈ 5.84 µM); MIC (Prevotella amnii; Prevotella amnii, isolate 601293 29): 1 µg/mL (≈ 5.84 µM); MIC (Prevotella amnii; Prevotella amnii, isolate 601305 A): 2 µg/mL (≈ 11.7 µM); MIC (Prevotella amnii; Prevotella amnii, isolate 601311 K): 0.5 µg/mL (≈ 2.92 µM); MIC (Prevotella amnii; Prevotella amnii, isolate 601314 19): 2 µg/mL (≈ 11.7 µM); MIC (Prevotella amnii; Prevotella amnii, isolate 601318 G): 1 µg/mL (≈ 5.84 µM); MIC (Prevotella amnii; Prevotella amnii, isolate 601336 33): 1 µg/mL (≈ 5.84 µM); MIC (Prevotella amnii; Prevotella amnii, isolate 601340 37): 2 µg/mL (≈ 11.7 µM); MIC (Prevotella amnii; Prevotella amnii, isolate 601341 H): 1 µg/mL (≈ 5.84 µM); MIC (Prevotella amnii; Prevotella amnii, isolate 601350 A): 0.5 µg/mL (≈ 2.92 µM); MIC (Prevotella amnii; Prevotella amnii, isolate 601365 6): 0.25 µg/mL (≈ 1.46 µM); MIC (Prevotella amnii; Prevotella amnii, isolate 601368 24): 0.5 µg/mL (≈ 2.92 µM); MIC (Prevotella amnii; Prevotella amnii, isolate 601369 13): 2 µg/mL (≈ 11.7 µM); MIC (Prevotella amnii; Prevotella amnii, isolate 601375 L): 1 µg/mL (≈ 5.84 µM); MIC (Prevotella amnii; Prevotella amnii, isolate 601377 9): 1 µg/mL (≈ 5.84 µM); MIC (Prevotella amnii; Prevotella amnii, isolate 601379 24): 1 µg/mL (≈ 5.84 µM); MIC (Prevotella amnii; Prevotella amnii, isolate 601388 G): 1 µg/mL (≈ 5.84 µM); MIC (Prevotella amnii; Prevotella amnii, isolate 601399 10): 1 µg/mL (≈ 5.84 µM); MIC (Prevotella amnii; Prevotella amnii, isolate 601405 A): 1 µg/mL (≈ 5.84 µM); MIC (Prevotella amnii; Prevotella amnii, isolate 601411 L): 1 µg/mL (≈ 5.84 µM); MIC (Prevotella amnii; Prevotella amnii, isolate 601413 10): 1 µg/mL (≈ 5.84 µM); MIC (Prevotella amnii; Prevotella amnii, isolate 601418 27): 1 µg/mL (≈ 5.84 µM); MIC (Prevotella amnii; Prevotella amnii, isolate 601426 A): 1 µg/mL (≈ 5.84 µM); MIC (Prevotella amnii; Prevotella amnii, isolate 601430 14): 1 µg/mL (≈ 5.84 µM); MIC (Prevotella amnii; Prevotella amnii, isolate 601434 13): 0.5 µg/mL (≈ 2.92 µM); MIC (Prevotella amnii; Prevotella amnii, isolate 601458 13): 1 µg/mL (≈ 5.84 µM); MIC50 (Prevotella amnii; Prevotella amnii, # tested 33): 1 µg/mL (≈ 5.84 µM); MIC90 (Prevotella amnii; Prevotella amnii, # tested 33): 2 µg/mL (≈ 11.7 µM); MIC (Prevotella timonensis; isolate 301212 10): 2 µg/mL (≈ 11.7 µM); MIC (Prevotella timonensis; isolate 601080 5): 2 µg/mL (≈ 11.7 µM); MIC (Prevotella timonensis; isolate 601088 15): 2 µg/mL (≈ 11.7 µM); MIC (Prevotella timonensis; isolate 601093 24): 2 µg/mL (≈ 11.7 µM); MIC (Prevotella timonensis; isolate 601097 S): 2 µg/mL (≈ 11.7 µM); MIC (Prevotella timonensis; isolate 601098 B): 2 µg/mL (≈ 11.7 µM); MIC (Prevotella timonensis; isolate 601157 19): 2 µg/mL (≈ 11.7 µM); MIC (Prevotella timonensis; isolate 601167 13): 2 µg/mL (≈ 11.7 µM); MIC (Prevotella timonensis; isolate 601170 13): 2 µg/mL (≈ 11.7 µM); MIC (Prevotella timonensis; isolate 601175 J): 2 µg/mL (≈ 11.7 µM); MIC (Prevotella timonensis; isolate 601178 19): 2 µg/mL (≈ 11.7 µM); MIC (Prevotella timonensis; isolate 601194 9B): 2 µg/mL (≈ 11.7 µM); MIC (Prevotella timonensis; isolate 601214 A): 4 µg/mL (≈ 23.4 µM); MIC (Prevotella timonensis; isolate 601226 C): 2 µg/mL (≈ 11.7 µM)
